Measured values reported in US11076595B2, “1-(n,n-disubstituted carbamoyl) 4-(substituted sulfonyl)triazolin-5-one derivative, 4-(n,n-disubstituted carbamoyl) 1-(substituted sulfonyl)triazolin-5-one derivative, and herbicide containing said derivative as active ingredient” (HOKKO CHEMICAL INDUSTRY CO., LTD., priority 2017, dated 2021).

Key:
Assay type in all cases: in vivo
crabgrass [1] = test: Test Example 13: herbicidal effect test by soil treatment in upland field; conditions: 120 g/10a, 14 days after treatment
Protocol: (§1) A pot having a size of 36 cm^2 was filled with field soil (alluvial soil) and after mixing the soil of the surface layer of 1 cm with 20 grains of each weed seed of crabgrass, Echinochloa crus-galli, Chenopodium album and Amaranthus viridis, the surface layer was pressed lightly. One day after the sowing, an emulsifiable concentrate prepared according to Formulation Example 15 by using the compound shown in Table 11 below was diluted with water, and the water-diluted formulation was sprayed on the soil surface at a ratio of 100 liter per 10 are. The application rate of the active ingredient, by conversion, corresponded to 120 g per 10 are. Fourteen Days after the formulation treatment, the herbicidal effect was evaluated by the same criteria as in Test Example 11.

Amaranthus viridis [2] = test: as above; conditions: 120 g/10a, 14 days after treatment
Protocol: as §1

Chenopodium album [3] = test: as above; conditions: 120 g/10a, 14 days after treatment
Protocol: as §1

Echinochloa crus-galli [4] = test: as above; conditions: 120 g/10a, 14 days after treatment
Protocol: as §1

Echinochloa crus-galli [5] = test: Test Example 12: herbicidal effect test by treatment during growing period in paddy field; conditions: 120 g/10a; treatment seven days after sowing in flooded paddy pot; assessed 14 days after treatment
Method in brief: (§2)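 Puddled, fertilized paddy soil in Wagner pots, sown with 30 seeds per species at 0–1 cm and flooded to ~3 cm in a glass greenhouse. Emulsifiable concentrate dripped into water 7 days after sowing at 120 g a.i. per 10 are. Suppression % from dry weight vs untreated, 14 days post-treatment, two replicates.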

Lindernia pyxidaria [6] = test: as above; conditions: 120 g/10a; treatment seven days after sowing in flooded paddy pot; assessed 14 days after treatment
Method in brief: as §2

Monochoria vaginalis [7] = test: as above; conditions: 120 g/10a; treatment seven days after sowing in flooded paddy pot; assessed 14 days after treatment
Method in brief: as §2

Scirpus juncoides [8] = test: as above; conditions: 120 g/10a; treatment seven days after sowing in flooded paddy pot; assessed 14 days after treatment
Method in brief: as §2

Echinochloa crus-galli [9] = test: Test Example 11: herbicidal effect test by soil treatment in paddy field; conditions: 120 g/10a active ingredient, 14 days after treatment
Method in brief: (§3)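 Puddled paddy soil with N:P:K 17:17:17 fertilizer in Wagner pots; 30 seeds per species sown at 0–1 cm, flooded to about 3 cm, kept in a glass greenhouse. Water-diluted emulsifiable concentrate dripped in immediately after sowing at 120 g a.i. per 10 are. Suppression from dry weight versus untreated at 14 days.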

Lindernia pyxidaria [10] = test: as above; conditions: 120 g/10a active ingredient, 14 days after treatment
Method in brief: as §3

Monochoria vaginalis [11] = test: as above; conditions: 120 g/10a active ingredient, 14 days after treatment
Method in brief: as §3

Scirpus juncoides [12] = test: as above; conditions: 120 g/10a active ingredient, 14 days after treatment
Method in brief: as §3

Amaranthus viridis [13] = test: Test Example 14: herbicidal effect test by foliage treatment in upland field; conditions: 7 days after sowing, 120 g/10a, 14 days after treatment
Method in brief: (§4)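 Dry-weight read-out: suppression (%) = (1 − mean treated dry weight/mean untreated dry weight)×100, at 14 days post-spray, two replicate plots per concentration. Spray applied 7 days after sowing, 120 g a.i. per 10 are.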

Echinochloa crus-galli [14] = test: as above; conditions: 7 days after sowing, 120 g/10a, 14 days after treatment
Method in brief: as §4

crabgrass [15] = test: as above; conditions: 7 days after sowing, 120 g/10a, 14 days after treatment
Method in brief: as §4

Chenopodium album [16] = test: as above; conditions: 7 days after sowing, 120 g/10a, 14 days after treatment
Method in brief: as §4

SMILES	herbicidal effect, Crabgrass (crabgrass [1]) [%]	herbicidal effect, Amaranthus viridis (Amaranthus viridis [2]) [%]	herbicidal effect, Chenopodium album (Chenopodium album [3]) [%]	herbicidal effect, Echinochloa crus-galli (Echinochloa crus-galli [4]) [%]	Weed suppression rate (%) Echinochloa crus-galli (Echinochloa crus-galli [5]) [%]	Weed suppression rate (%) Lindemia pyxidaria (Lindernia pyxidaria [6]) [%]	Weed suppression rate (%) Monochoria vaginalis (Monochoria vaginalis [7]) [%]	Weed suppression rate (%) Scirpus juncoides (Scirpus juncoides [8]) [%]	Weed suppression rate (%) Echinochloa crus-galli (Echinochloa crus-galli [9]) [%]	Weed suppression rate (%) Lindemia pyxidaria (Lindernia pyxidaria [10]) [%]	Weed suppression rate (%) Monochoria vaginalis (Monochoria vaginalis [11]) [%]	Weed suppression rate (%) Scirpus juncoides (Scirpus juncoides [12]) [%]	herbicidal effect, Amaranthus viridis (Amaranthus viridis [13]) [%]	herbicidal effect, Echinochloa crus-galli (Echinochloa crus-galli [14]) [%]	herbicidal effect, Crabgrass (crabgrass [15]) [%]	herbicidal effect, Chenopodium album (Chenopodium album [16]) [%]
Cc1cc(F)ccc1N(C(=O)n1cnn(S(C)(=O)=O)c1=O)C(C)C [Compound 11-25]	100	30	30	80	100	70	70	100	90	70	60	90	–	–	–	–
CC(C)N(C(=O)n1cnn(S(=O)(=O)C(F)(F)F)c1=O)c1ccc(F)cc1F [Compound 11-95]	70	0	0	70	90	60	90	70	100	100	50	100	–	–	–	–
Cc1cc(F)ccc1N(C(=O)n1cnn(S(=O)(=O)C2CC2)c1=O)C(C)C [Compound 11-211]	100	70	70	100	100	80	80	100	100	100	80	90	–	–	–	–
CC(C)N(C(=O)n1cnn(S(=O)(=O)C2CC2)c1=O)c1ccc(C#N)cc1Cl [Compound 11-222]	90	90	80	80	90	80	80	90	90	80	80	90	–	–	–	–
CCN(CC)C(=O)n1cnn(S(=O)(=O)c2ccc(C)cc2)c1=O [Compound 11-625]	80	0	0	80	–	–	–	–	100	80	40	60	–	–	–	–
CCN(CC)C(=O)n1cnn(S(=O)(=O)c2ccc(C(C)(C)C)cc2)c1=O [Compound 11-670]	70	0	0	70	–	–	–	–	50	70	50	60	–	–	–	–
CC(C)N(C(=O)n1cnn(S(=O)(=O)c2cccnc2)c1=O)c1ccc(F)cc1F [Compound 11-985]	80	0	0	80	–	–	–	–	90	60	40	40	–	–	–	–
CC(C)N(C(=O)n1cnn(S(=O)(=O)c2cccs2)c1=O)c1ccc(F)c(F)c1F [Compound 11-1025]	–	–	–	–	100	80	100	100	100	100	100	100	60	100	100	60
CC(C)N(C(=O)n1cnn(S(=O)(=O)c2cccs2)c1=O)c1c(F)cc(F)cc1F [Compound 11-1026]	–	–	–	–	100	80	100	100	100	100	100	100	30	90	90	70
CC(C)N(C(=O)n1cnn(S(=O)(=O)c2cccs2)c1=O)c1ccc(Br)cc1Cl [Compound 11-1033]	–	–	–	–	100	100	100	100	100	100	90	100	60	90	90	60
CC(C)N(Cc1ccc(F)cc1F)C(=O)n1cnn(S(=O)(=O)c2cccs2)c1=O [Compound 11-1046]	–	–	–	–	100	90	90	90	100	80	60	80	60	0	100	40
CC(C)N(C(=O)n1cnn(S(=O)(=O)N(C)C)c1=O)c1ccc(Cl)cc1F [Compound 11-1072]	–	–	–	–	100	90	60	90	90	80	80	90	90	80	90	80
CN(C(=O)n1cnn(S(=O)(=O)C2CCCCC2)c1=O)c1ccc(F)cc1F [Compound 11-1129]	–	–	–	–	100	70	80	100	100	100	100	100	70	70	90	60
CCS(=O)(=O)n1ncn(C(=O)N(c2ccc(F)c(F)c2F)C(C)C)c1=O [Compound 11-1152]	–	–	–	–	100	100	100	100	100	100	100	100	90	100	100	80
